The target in experiment [1] is T1, GHSR1a (Homo sapiens, UniProt Q92847).
T1 construct: expressed in transfected cells; host or cells: HEK293
In words: Calcium FLIPR assay, GHSR-1a agonism. The class given is cell-based. Set-up: Emax: unit not given here. The conditions noted are these: HEK293/GHSR1a cells. The protocol: (§1) The intracellular calcium assay was carried out in a 384-well format FLIPR™ (Molecular Device) HEK293/GHSR1a cell line. Cells were seeded 24 hr prior to the experiments at an optimal density per well. Preincubation with selected calcium dye lasted for 30-60 min at room temperature or 37° C. Test compounds, dissolved in DMSO, were added at the appropriate time and incubated for 15 min followed by the addition of ghrelin with FlexStation or FLIPR. Relative fluorescence was monitored by the FLIPR™ Molecular Device. EC50 and IC50 values were estimated from dose-response data using GraphPad Prism software. To check for GHSR-1a agonism the compound was added at t=20 sec. and the calcium response was followed for 2 minutes. To check for GHSR-1a antagonism the compound and Ghrelin (10 nM) were added to the cells at t=20 sec. and the calcium response was measured for 2 minutes. The potency of the antagonist was calculated by its ability to reduce the ghrelin response. Dose-response curves were made for relevant antagonists.

The target in experiment [2] is T1, GHSR1a. Briefly: Calcium FLIPR assay, GHSR-1a antagonism (reduction of ghrelin response). The class given is cell-based. The settings on record: HEK293/GHSR1a cells, ghrelin 10 nM. The method, then: as §1

The structures appear in SMILES notation.

T1 sequence (Q92847 whole entry): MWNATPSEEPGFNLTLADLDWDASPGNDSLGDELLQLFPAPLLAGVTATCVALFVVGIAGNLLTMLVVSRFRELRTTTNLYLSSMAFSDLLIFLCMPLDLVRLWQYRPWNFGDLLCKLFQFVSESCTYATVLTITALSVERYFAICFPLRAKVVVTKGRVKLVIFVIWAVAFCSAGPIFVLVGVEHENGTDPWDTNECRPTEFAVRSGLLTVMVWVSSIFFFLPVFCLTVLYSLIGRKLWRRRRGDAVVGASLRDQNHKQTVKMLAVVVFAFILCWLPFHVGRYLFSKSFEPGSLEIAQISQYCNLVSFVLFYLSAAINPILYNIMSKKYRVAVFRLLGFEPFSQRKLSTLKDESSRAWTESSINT

The term EC50 denotes the concentration needed to bring the measured effect to its halfway point. Usually IC50 stands for the concentration needed to halve the response being measured. As to `CC(NC(=O)N(C)C1CCN(C)CC1)c1ccc(-c2cc(F)cc(F)c2)c(Cl)c1Cl` (stereo not shown) [Compound H0605, 3-(1-(2,3-dichloro-3′,5′-difluoro[1,1′-biphenyl]-4-yl)ethyl)-1-methyl-1-(1-methylpiperidin-4-yl)urea], in experiment [1], the EC50 was 96 nM and the Emax came out at 1833. In experiment [2], the IC50 came out at 31 nM.

`COc1cccc(-c2ccc(C(C)NC(=O)N(C)C3CCN(C)CC3)c(Cl)c2Cl)c1` (stereo not shown) [Compound H0606, 3-(1-(2,3-dichloro-3′-methoxy-[1,1′-biphenyl]-4-yl)ethyl)-1-methyl-1-(1-methylpiperidin-4-yl)urea]: in experiment [1], the EC50 was 31 nM and the Emax worked out at 2336. The IC50 in experiment [2] was 24 nM.

As to `CC(C)Oc1ccc(-c2ccc(C(C)NC(=O)N(C)C3CCN(C)CC3)c(Cl)c2Cl)cn1` (stereo not shown) [Compound H0608, 3-(1-(2,3-dichloro-4-(6-isopropoxypyridin-3-yl)phenyl)ethyl)-1-methyl-1-(1-methylpiperidin-4-yl)urea], the EC50 in experiment [1] was 422 nM. For the same compound, the half-maximal inhibitory concentration (IC50) in experiment [2] was 69 nM.

Consider `CC(NC(=O)N(C)C1CCN(C)CC1)c1ccc(C#Cc2ccccc2)c(Cl)c1Cl` (stereo not shown) [Compound H0609, 3-(1-(2,3-dichloro-4-(phenylethynyl)phenyl)ethyl)-1-methyl-1-(1-methylpiperidin-4-yl)urea], for which, in experiment [1], the EC50 was greater than 30000 nM. Moreover, the IC50 in experiment [2] was 517 nM.

For the compound `COc1cc(OC)cc(-c2ccc(C(C)NC(=O)N(C)C3CCN(C)CC3)c(Cl)c2Cl)c1` (stereo not shown) [Compound H0611, 3-(1-(2,3-dichloro-3′,5′-dimethoxy-[1,1′-biphenyl]-4-yl)ethyl)-1-methyl-1-(1-methylpiperidin-4-yl)urea], in experiment [1], the EC50 was greater than 30000 nM. In addition, in experiment [2], the IC50 stood at 2300 nM.

Turning to `CC(NC(=O)N(C)C1CCN(C)CC1)c1ccc(-c2cccc(C(N)=O)c2)c(Cl)c1Cl` (stereo not shown) [Compound H0612, 2′,3′-dichloro-4′-(1-(3-methyl-3-(1-methylpiperidin-4-yl)ureido)ethyl)-[1,1′-biphenyl]-3-carboxamide], in experiment [1], the EC50 was greater than 30000 nM. The IC50 in experiment [2] stood at 1600 nM.

On to `CC(NC(=O)N(C)C1CCN(C)CC1)c1ccc(-c2ccc(C#N)nc2)c(Cl)c1Cl` (stereo not shown) [Compound H0616, 3-(1-(2,3-dichloro-4-(6-cyanopyridin-3-yl)phenyl)ethyl)-1-methyl-1-(1-methylpiperidin-4-yl)urea], for which the EC50 in experiment [1] amounted to 580 nM. The half-inhibitory concentration (IC50) in experiment [2] is 132 nM.

Consider `CC(NC(=O)N(C)C1CCN(C)CC1)c1ccc(-c2ccc(F)nc2)c(Cl)c1Cl` (stereo not shown) [Compound H0618, 3-(1-(2,3-dichloro-4-(6-fluoropyridin-3-yl)phenyl)ethyl)-1-methyl-1-(1-methylpiperidin-4-yl)urea], for which, in experiment [1], the EC50 turned out to be 130 nM. In addition, in experiment [2], the IC50 is 40 nM.

Consider `CC(NC(=O)N(O)C1CCN(C)CC1)c1ccc(-c2cncnc2)c(Cl)c1Cl` (stereo not shown) [Compound H0624, 3-(1-(2,3-dichloro-4-(pyrimidin-5-yl)phenyl)ethyl)-1-hydroxy-1-(1-methylpiperidin-4-yl)urea], for which, in experiment [1], the EC50 was greater than 30000 nM. Besides, the IC50 in experiment [2] was 253 nM.

Consider `C=Cc1ccc(C(C)NC(=O)N(C)C2CCN(C)CC2)c(Cl)c1Cl` (stereo not shown) [Compound H0626, 3-(1-(2,3-dichloro-4-vinylphenyl)ethyl)-1-methyl-1-(1-methylpiperidin-4-yl)urea], for which, in experiment [1], the EC50 stood at 15 nM and the Emax is 3835. Also, the IC50 in experiment [2] was determined as 4 nM.

In the case of `CCc1ccc(C(C)NC(=O)N(C)C2CCN(C)CC2)c(Cl)c1Cl` (stereo not shown) [Compound H0628, 3-(1-(2,3-dichloro-4-ethylphenyl)ethyl)-1-methyl-1-(1-methylpiperidin-4-yl)urea], in experiment [1], the EC50 turned out to be 101 nM and the Emax amounted to 4433. Also, in experiment [2], the IC50 was 59 nM.

On to `CN1CCC(N(C)C(=O)NC(C#N)c2ccc(-c3cncnc3)c(Cl)c2Cl)CC1` (stereo not shown) [Compound H0631, 3-(cyano(2,3-dichloro-4-(pyrimidin-5-yl)phenyl)methyl)-1-methyl-1-(1-methylpiperidin-4-yl)urea], for which the EC50 in experiment [1] is greater than 30000 nM. Besides, the IC50 in experiment [2] worked out at 719 nM.

Regarding `CC(NC(=O)N(C)C1CCN(C)CC1)c1ccc(CF)c(Cl)c1Cl` (stereo not shown) [Compound H0634, 3-(1-(2,3-dichloro-4-(fluoromethyl)phenyl)ethyl)-1-methyl-1-(1-methylpiperidin-4-yl)urea], the EC50 in experiment [1] came out at 37 nM. For the same compound, the IC50 in experiment [2] is 13 nM.

With `COC(=O)c1cncc(-c2ccc(C(C)NC(=O)N(C)C3CCN(C)CC3)c(Cl)c2Cl)c1` (stereo not shown) [Compound H0635, methyl 5-(2,3-dichloro-4-(1-(3-methyl-3-(1-methylpiperidin-4-yl)ureido)ethyl)phenyl)nicotinate], the EC50 in experiment [1] is greater than 30000 nM. The half-maximal inhibitory concentration (IC50) in experiment [2] stood at 1090 nM.

Take `CC(NC(=O)N(C)C1CCN(C)CC1)c1ccc(-c2cncc(CF)c2)c(Cl)c1Cl` (stereo not shown) [Compound H0638, 3-(1-(2,3-dichloro-4-(5-(fluoromethyl)pyridin-3-yl)phenyl)ethyl)-1-methyl-1-(1-methylpiperidin-4-yl)urea]: the EC50 in experiment [1] was greater than 30000 nM. Also, the IC50 in experiment [2] stood at 57 nM.

For the compound `CC(NC(=O)N(C)C1CCN(C)CC1)c1ccc(C=O)c(Cl)c1Cl` (stereo not shown) [Compound H0640, 3-(1-(2,3-dichloro-4-formylphenyl)ethyl)-1-methyl-1-(1-methylpiperidin-4-yl)urea], in experiment [1], the EC50 was greater than 30000 nM. Moreover, the IC50 in experiment [2] was determined as 103 nM.

Consider `COC(=O)/C=C/c1ccc(C(C)NC(=O)N(C)C2CCN(C)CC2)c(Cl)c1Cl` (stereo not shown) [Compound H0641, methyl (E)-3-(2,3-dichloro-4-(1-(3-methyl-3-(1-methylpiperidin-4-yl)ureido)ethyl)phenyl)acrylate], for which, in experiment [1], the EC50 amounted to 35 nM and the Emax is on record as 1690. In experiment [2], the IC50 is 18 nM.

Consider `CC(NC(=O)N(C)C1CCN(C)CC1)c1ccc(CCCO)c(Cl)c1Cl` (stereo not shown) [Compound H0643, 3-(1-(2,3-dichloro-4-(3-hydroxypropyl)phenyl)ethyl)-1-methyl-1-(1-methylpiperidin-4-yl)urea], for which, in experiment [1], the EC50 turned out to be 83 nM and the Emax amounted to 2660. The IC50 in experiment [2] was 22 nM.

As to `CC(NC(=O)N(C)C1CCN(C)CC1)c1ccc(C2OCCO2)c(Cl)c1Cl` (stereo not shown) [Compound H0645, 3-(1-(2,3-dichloro-4-(1,3-dioxolan-2-yl)phenyl)ethyl)-1-methyl-1-(1-methylpiperidin-4-yl)urea], in experiment [1], the EC50 came to 287 nM and the Emax is recorded as 2761. In experiment [2], the IC50 came to 133 nM.

For `CC(NC(=O)N(C)C1CCN(C)CC1)c1ccc(-c2cncc(/C=N/O)c2)c(Cl)c1Cl` (stereo not shown) [Compound H0646, (E)-3-(1-(2,3-dichloro-4-(5-((hydroxyimino)methyl)pyridin-3-yl)phenyl)ethyl)-1-methyl-1-(1-methylpiperidin-4-yl)urea], the EC50 in experiment [1] was greater than 30000 nM. Besides, the IC50 in experiment [2] amounted to 541 nM.

As for `CC(NC(=O)N(C)C1CCN(C)CC1)c1ccc(-c2ccccn2)c(Cl)c1Cl` (stereo not shown) [Compound H0650, 3-(1-(2,3-dichloro-4-(pyridin-2-yl)phenyl)ethyl)-1-methyl-1-(1-methylpiperidin-4-yl)urea], in experiment [1], the EC50 amounted to 9 nM and the Emax worked out at 2150. Besides, in experiment [2], the IC50 was 4 nM.

`CC(NC(=O)N(C)C1CCN(C)CC1)c1ccc(-c2ccc(C=O)s2)c(Cl)c1Cl` (stereo not shown) [Compound H0651, 3-(1-(2,3-dichloro-4-(5-formylthiophen-2-yl)phenyl)ethyl)-1-methyl-1-(1-methylpiperidin-4-yl)urea]: in experiment [1], the EC50 was 11 nM and the Emax came to 2300. The IC50 in experiment [2] was determined as 4 nM.

Consider `CC(NC(=O)N(C)C1CCN(C)CC1)c1ccc(-c2ccc(C=O)s2)c(Cl)c1Cl` (stereo not shown) [Compound H0652, 3-(1-(2,3-dichloro-4-(5-formylthiophen-2-yl)phenyl)ethyl)-1-methyl-1-(1-methylpiperidin-4-yl)urea], for which, in experiment [1], the EC50 was 5 nM and the Emax is 1500. The IC50 in experiment [2] was found to be 7 nM.

On to `COc1ccc(C(C#N)NC(=O)N(C)C2CCN(C)CC2)c(Cl)c1Br` (stereo not shown) [Compound H0658, 3-((3-bromo-2-chloro-4-methoxyphenyl)(cyano)methyl)-1-methyl-1-(1-methylpiperidin-4-yl)urea], for which, in experiment [1], the 50% effective concentration (EC50) amounted to 9 nM and the Emax came to 2400. Moreover, in experiment [2], the IC50 turned out to be 6 nM.

On to `COc1ccc(C(NC(=O)N(C)C2CCN(C)CC2)C(N)=O)c(Cl)c1Br` (stereo not shown) [Compound H0659, 2-(3-bromo-2-chloro-4-methoxyphenyl)-2-(3-methyl-3-(1-methylpiperidin-4-yl)ureido)acetamide], for which, in experiment [1], the EC50 is 353 nM and the Emax was 200. Moreover, the IC50 in experiment [2] worked out at 390 nM.

As for `COC(=O)C(NC(=O)N(C)C1CCN(C)CC1)c1ccc(-c2cccs2)c(Cl)c1Cl` (stereo not shown) [Compound H0660, methyl 2-(2,3-dichloro-4-(thiophen-2-yl)phenyl)-2-(3-methyl-3-(1-methylpiperidin-4-yl)ureido)acetate], in experiment [1], the concentration for a half-maximal effect (EC50) was determined as 180 nM and the Emax is reported as 2100. Moreover, the IC50 in experiment [2] came out at 69 nM.

`COC(=O)C(NC(=O)N(C)C1CCN(C)CC1)c1ccc(-c2cncnc2)c(Cl)c1Cl` (stereo not shown) [Compound H0662, methyl 2-(2,3-dichloro-4-(pyrimidin-5-yl)phenyl)-2-(3-methyl-3-(1-methylpiperidin-4-yl)ureido)acetate]: the EC50 in experiment [1] was greater than 30000 nM. Moreover, the IC50 in experiment [2] is no less than 1000 nM.

The record behind these values is patent US9546157B2, “Asymmetric piperidinyl-substituted ureas as medicines” (Helsinn Healthcare SA, priority 2014, dated 2017).
